Data published in the SangsterLogP compilation.

| logP | SMILES |
| --- | --- |
| 2.02 | Cc1c(CNc2ccccc2)cnc2nc(N)nc(N)c12 |
| 1.46 | CC(=O)c1cccc(NCc2cnc3nc(N)nc(N)c3c2C)c1 |
| 1.45 | CC(=O)c1ccc(NCc2cnc3nc(N)nc(N)c3c2C)cc1 |
| 2 | Cc1c(CNc2c(Cl)cccc2Cl)cnc2nc(N)nc(N)c12 |
| 2.03 | Cc1c(CNc2ccc(Cl)cc2)cnc2nc(N)nc(N)c12 |
| 2.03 | Cc1ccc(NCc2cnc3nc(N)nc(N)c3c2C)cc1Cl |
| 2.1 | Cc1c(CNc2cccc(Cl)c2Cl)cnc2nc(N)nc(N)c12 |
| 2.06 | Cc1c(CNc2ccc(Cl)c(Cl)c2)cnc2nc(N)nc(N)c12 |
| 2.03 | Cc1cc(NCc2cnc3nc(N)nc(N)c3c2C)ccc1Cl |
| 2.04 | Cc1c(Cl)cccc1NCc1cnc2nc(N)nc(N)c2c1C |
| 2.07 | CCOc1ccccc1NCc1cnc2nc(N)nc(N)c2c1C |
| 1.98 | Cc1ccccc1NCc1cnc2nc(N)nc(N)c2c1C |
| 2.29 | Cc1ccc(C)c(NCc2cnc3nc(N)nc(N)c3c2C)c1 |
| 2.11 | Cc1cc(C)cc(NCc2cnc3nc(N)nc(N)c3c2C)c1 |
| 2.05 | Cc1cccc(Cl)c1NCc1cnc2nc(N)nc(N)c2c1C |
